Several values for one entry are separate records, joined by “and”; a condition that tells them apart may be missing. Equal entries are not always repeated. Where two headings read alike, the source gives them in different places.
Tests used:
[1] = tested on: colorectal cell line DLD1(BAX−/−)(BAK−/−); test: ML291 exposure of DLD1(BAX−/−)(BAK−/−) versus wild-type; format: cell-based, human; details: versus wild-type controls
−/− MEF KO CHOP = test: Proliferation / cytotoxicity (ATPLite) in MEF with CHOP KO; format: cell-based; details: Mus musculus
Experimental: (§1) Several of the analogs derived from these changes were evaluated in secondary assays as they met the preliminary probe criteria for UPR-CHOP and UPR-XBP1 activity. Select compounds were assessed in a dose response manner for the ability to suppress proliferation in both the CHOP wild-type and CHOP knockout murine embryonic fibroblasts (−/− MEF KO CHOP)(Table 2).
(§2) It was determined whether ML291 and ML291 congeners would induce cell death (cytotoxicity as measured by ATPLite®, which measures production of ATP from living cells) in cells where these pathways are operant, but not activate them in the absence of the pathways.

Plasma stability, human = format: in vitro ADME
Excerpt: (§3) Plasma stability is a measure of the stability of small molecules and peptides in plasma and is an important parameter, which strongly can influence the in vivo efficacy of a test compound. Drug candidates are exposed in plasma to enzymatic processes (proteinases, esterases), and they can undergo intramolecular rearrangement or bind irreversibly (covalently) to proteins. ML291 appeared to be moderately stable in human plasma (˜84% remaining), but less so in mouse plasma (˜52% remaining).

OSCC = test: Preliminary combination studies with cisplatin and taxol; format: cell-based
Experimental: To confirm the ability of ML291 to activate UPR-luciferase reporters stably transfected into UMSCC23 and A253 cells and reduce tumor burden, additional xenograft studies are performed with additional animals to permit real-time measurement of UPR activation during drug treatment (bioluminescent imaging). The data presented herein indicate that ML291 can activate the UPR in xenograft tissue at 10 mg/kg. […] Thus, mice are injected IP in the morning with 10-100 mg/kg ML291. Injection in the morning, i.e., when the lights come on in the vivarium and the mice stomachs are most likely to be full, is a technique known to enhance absorption of nitrofurans into the bloodstream (Heinrichs (2001) Behavioural Brain Res. 125:81-88). […] Upon completion of this experiment, control and ML291 treated mice (3 each) undergo complete pathological necropsy to identify gross or histological signs of organ toxicity. Once the degree to which ML291 induces the UPR and reduces xenograft burden is analyzed, additional studies are carried out with combination therapies using standard of care OSCC drugs. […] It is posited that ML291-enforced UPR in the tumor milieu potentiates conventional therapies and might enhance the effects of cisplatin, ifosfamide or taxol.

[2] = Plasma protein binding, human; format: in vitro ADME
Excerpt: (§4) Plasma protein binding is a measure of a drug's efficiency to bind to the proteins within blood plasma. The less bound a drug is, the more efficiently it can traverse cell membranes or diffuse. Highly plasma protein bound drugs are confined to the vascular space, thereby having a relatively low volume of distribution. In contrast, drugs that remain largely unbound in plasma are generally available for distribution to other organs and tissues. ML291 was highly plasma protein bound to human plasma proteins (>99%), though it is somewhat less tightly bound to mouse plasma proteins (˜84%).

A253-CHOP-luc xenografts = test: Bioluminescent imaging of A253-CHOP-luc xenografts; format: in vivo, SCID mice; details: 24 hours after 10 mg/kg (IP)
[3] = Plasma protein binding, mouse; format: in vitro ADME
Excerpt: as §4

[4] = Aqueous solubility in 1x PBS, pH 7.4; format: physicochemical; details: room temperature (23° C.)
Experimental: Solubility was measured in phosphate-buffered saline (PBS) at room temperature (23° C.). PBS by definition is 137 mM NaCl, 2.7 mM KCl, 10 mM sodium phosphate dibasic, 2 mM potassium phosphate monobasic and a pH of 7.4.

HN12 = test: Proliferation, HN12; format: cell-based; details: 24 hours, average of three experiments
Experimental: (§5) To determine whether ML291 could reduce the proliferation of malignant cells, a panel of OSCC (UMSCC23, A253, HN6, HN12, HN30, H460/T800) and ovarian cancer (RMG-1, TOV112D, A2780 and SKOV3) cell lines, were treated with increasing doses (0.15-20 μM) of ML291 for 24 hours (FIGS. 3A and 3B).

Plasma stability, mouse = format: in vitro ADME
Excerpt: as §3

[5] = tested on: IRE1/XBP1 (adaptive) UPR sub-pathway; test: UPR XBP1 assay (CHO-XBP1-luciferase reporter cell line); format: cell-based
Experimental: A high-throughput screen of the NIH Molecular Libraries Small Molecule Repository (MLSMR) of >350,000 compounds was carried out using complementary cell-based reporter assays using stably transfected CHO-K1 cells that specifically identify activators of the PERK/eIF2α/CHOP (apoptotic), or the IRE1/XBP1 (adaptive) UPR sub-pathways.
The liquid samples were first confirmed at a single-point concentration of 10 μM in the […]. Of the liquid samples, 674 compounds were confirmed to have at least 32% activity at a 10 μM assay concentration. The confirmed compounds were further tested in dose response in the UPR-CHOP primary assay to obtain EC50 values. In addition, confirmed compounds were also dosed out in the CHO-XBP1-luciferase reporter cell line to identify compounds that were selective for the CHOP apoptotic over the adaptive XBP1 pathway.
The high throughput screening effort and subsequent validation produced two chemotypes, which were further explored by SAR analysis for potency, selectivity, the absence of reactive functionality, synthetic accessibility, physiochemical properties, and hit rate in unrelated PUBCHEM assays. SAR testing of re-constituted powders encompassed dose response testing of compounds in two assays: UPR-CHOP and UPR-XBP1 assays.

HN30 = test: Proliferation, HN30; format: cell-based; details: 24 hours, average of three experiments
Experimental: as §5

MEF with wild-type CHOP = test: Proliferation / cytotoxicity (ATPLite) in MEF with wild-type CHOP; format: cell-based, mouse
Experimental: as §1, §2

HN6 = test: Proliferation, HN6; format: cell-based; details: HN-6, 24 hours, average of three experiments
Experimental: as §5

O=C(Nc1ccc(S(=O)(=O)N2CCC(Cl)CC2)cc1)c1ccc([N+](=O)[O-])o1 [ML291, N-(4-((4-chloropiperidin-1-yl)sulfonyl)phenyl)-5-nitrofuran-2-carboxamide]
ability of BAX/BAK-deleted cells to withstand exposure [1]: significantly more able to withstand ML291 exposure than wild-type controls | EC50 (−/− MEF KO CHOP; Table 2, mean of replicates, EC50 and μM, read-out: Proliferation −/− MEF KO CHOP): > 20 µM | IC50 (−/− MEF KO CHOP; Table 5, MEF, ATPLite): > 20 µM | EC50 (−/− MEF KO CHOP; read-out: EC50 on −/− MEF knockout cells): > 20 µM | remaining in human plasma (Plasma stability, human): ~84% | Plasma Stability (% Remaining at 3 hours @ 37° C.) (Plasma stability, human; Human): 85.58% | effect of combination with cisplatin and taxol (OSCC): reduced IC50 values | bound to human plasma proteins [2]: > 99% | fraction unbound at 1 µM ([2]; plasma, Human, 1 μM, read-out: Plasma Protein Binding (% Bound) (converted)): 0.0025 | fraction unbound at 10 µM ([2]; plasma, Human, 10 μM, read-out: Plasma Protein Binding (% Bound) (converted)): 0.0037 | luminescence of xenografts (A253-CHOP-luc xenografts): increased luminescence | bound to mouse plasma proteins [3]: ~84% | fraction unbound at 1 µM ([3]; plasma, Mouse, 1 μM, read-out: Plasma Protein Binding (% Bound) (converted)): 0.155 | fraction unbound at 10 µM ([3]; plasma, Mouse, 10 μM, read-out: Plasma Protein Binding (% Bound) (converted)): 0.157 | Aqueous Solubility in 1x PBS, pH 7.4 [4]: 3.9 μg/mL and 9.4 μM | IC50 (HN12): 7.17 ± 0.69 µM | remaining in mouse plasma (Plasma stability, mouse): ~52% | Plasma Stability (% Remaining at 3 hours @ 37° C.) (Plasma stability, mouse; Mouse): 52.31% | EC50 ([5]; Table 1, mean of replicates, AID602416, read-out: UPR XBP1 Assay Potency EC50): > 80 µM | EC50 ([5]; Table 9, average of four runs, F12 HAMs, 10% hi-FBS, read-out: EC50 UPR XBP1 Assay): > 80 µM | EC50 ([5]; read-out: XBP1 EC50): > 80 µM | IC50 (HN30): 8.95 ± 1.06 µM | shift of potency in MEF wild-type CHOP versus CHO-K1 cell reporter assays (MEF with wild-type CHOP): ~6 fold | EC50 (MEF with wild-type CHOP; Mus musculus, Table 2, mean of replicates, EC50 and μM, read-out: Proliferation MEF wt CHOP): 4.77 ± 1.05 µM | IC50 (MEF with wild-type CHOP; Mus musculus, Table 5, MEF, ATPLite): 4.77 ± 1.05 µM | EC50 (MEF with wild-type CHOP; Mus musculus, read-out: CHOP wild-type EC50 (MEF)): 4.77 µM | EC50 (MEF with wild-type CHOP; read-out: CHOP wild-type EC50 (MEF)): ~4.8 µM | IC50 (HN6): > 20 µM
